Measurements as given in paper PMC11943097, “Phytochemical Characterization and Anticancer Activity of Clerodendrum chinense Leaf Extract Against Breast and Cervical Cancer Cells” (International Journal of Molecular Sciences, 2025).
In brackets after ≈: the same amount, converted by molar mass. Where two headings read alike, the source gives them in different places.

Columns and labels:
Assay type in all cases: cell-based
MCF-7 cells = experiment: MTT cell viability assay, MCF-7 cells; details: Homo sapiens
Protocol: (§1) MCF-7, HeLa, and RAW264.7 cells were cultured in DMEM supplemented with 10% FBS and 1% penicillin/streptomycin. Cell culture was maintained at 37 °C in a 5% CO2 incubator.
(§2) The assessment of cell viability was performed using an MTT assay to assess the cytotoxic effects of CCL on MCF-7, Hela, and RAW264.7 cells. Initially, MCF-7, HeLa, and RAW264.7 cells were seeded onto 96-well plates at a density of 2 × 10^4 cells/mL. Following a 24-h incubation period, the culture medium was replaced with a serum-free medium containing specified concentrations of CCL, verbascoside, isoverbascoside, and hispidulin ranging from 12.5 to 1000 µg/mL. Following 24, 48, and 72 h of treatment, an MTT solution (0.5 mg/mL in culture medium) was added to each well and incubated at 37 °C for 2 h. The metabolically active cells converted MTT into formazan crystals, which were then dissolved in 100 µL of DMSO per well. Absorbance was recorded at 550 nm using a SpectraMax 3 microplate reader (Molecular Devices, San Jose, CA, USA). The IC50 values were determined using GraphPad Prism v.7.0 (La Jolla, CA, USA). Cell viability was assessed in comparison to untreated control cells using the following equation: Cell viability %=A550sample/A550control×100%

HeLa cells = experiment: MTT cell viability assay, HeLa cells; details: Homo sapiens
Protocol: as §1, §2

RAW 264.7 macrophages = experiment: MTT cell viability assay, RAW264.7 cells; details: Mus musculus
Protocol: as §1, §2

SMILES	IC50 (MCF-7 cells; MCF7, 24 h)	IC50 (MCF-7 cells; MCF7, 48 h)	IC50 (MCF-7 cells; MCF7, 72 h)	IC50 (HeLa cells; 24 h)	IC50 (HeLa cells; 48 h)	IC50 (HeLa cells; 72 h)	IC50 (RAW 264.7 macrophages; RAW264.7, 24 h)	IC50 (RAW 264.7 macrophages; RAW264.7, 48 h)	IC50 (RAW 264.7 macrophages; RAW264.7, 72 h)	IC50 (MCF-7 cells; MCF7, MCF-7, 24 h, MTT, read-out: IC50)	IC50 (MCF-7 cells; MCF7, MCF-7, 48 h, MTT, read-out: IC50)	IC50 (MCF-7 cells; MCF7, MCF-7, 72 h, MTT, read-out: IC50)	IC50 (HeLa cells; 24 h, MTT, read-out: IC50)	IC50 (HeLa cells; 48 h, MTT, read-out: IC50)	IC50 (HeLa cells; 72 h, MTT, read-out: IC50)	IC50 (RAW 264.7 macrophages; RAW264.7, RAW 264.7, 24 h, MTT, read-out: IC50)	IC50 (RAW 264.7 macrophages; RAW264.7, RAW 264.7, 48 h, MTT, read-out: IC50)	IC50 (RAW 264.7 macrophages; RAW264.7, RAW 264.7, 72 h, MTT, read-out: IC50)
COc1c(O)cc2oc(-c3ccc(O)cc3)cc(=O)c2c1O [Hispidulin]	905 mg/L (≈ 3010 µM)	710 mg/L (≈ 2370 µM)	527 mg/L (≈ 1760 µM)	98.2 mg/L (≈ 327 µM)	119 mg/L (≈ 397 µM)	311 mg/L (≈ 1040 µM)	99.2 mg/L (≈ 330 µM)	120 mg/L (≈ 401 µM)	180 mg/L (≈ 600 µM)	–	–	–	–	–	–	–	–	–
C[C@@H]1O[C@@H](O[C@@H]2[C@@H](O)[C@H](OCCc3ccc(O)c(O)c3)O[C@H](CO)[C@H]2OC(=O)/C=C/c2ccc(O)c(O)c2)[C@H](O)[C@H](O)[C@H]1O [Verbascoside]	–	–	–	–	–	–	–	–	–	186 mg/L (≈ 297 µM)	184 mg/L (≈ 294 µM)	173 mg/L (≈ 277 µM)	373 mg/L (≈ 597 µM)	291 mg/L (≈ 466 µM)	342 mg/L (≈ 547 µM)	432 mg/L (≈ 691 µM)	446 mg/L (≈ 714 µM)	480 mg/L (≈ 769 µM)
